Laboratory results taken from paper PMC7691360, “Synthesis of novel cytotoxic tetracyclic acridone derivatives and study of their molecular docking, ADMET, QSAR, bioactivity and protein binding properties” (Scientific Reports, 2020).

Columns and labels:
[1] = tested on: HEK293T cells; assay: MTT cytotoxicity assay against HEK293T; format: cell-based; settings: Homo sapiens, HEK-293T, 48 h, read-out: Percentage of inhibition against treated concentrations
Experimental: (§1) Anticancer activity of 7a–s has been evaluated by MTT [3-(4,5-dimethylthiazol-2-yl)-2,5-diphenyl-tetrazolium bromide] assay and the cell lines HT29 (ATCC: HTB-38), MDA-MB-231 (ATCC: HTB-26), HEK293T (ATCC: CRL-3216) were procured from American type cell culture collection (ATCC), Manassas, USA and other chemicals were procured from Sigma-Aldrich. Then absorbance (used as a measure of cell proliferation) was measured at 570 nm with a kinetic micro-plate reader (BioTek, Winooski, Vermont).
(§2) Having synthesized a series of the title compounds, all of them were screened for their in vitro anticancer profiles against a panel of human colorectal adenocarcinoma (HT29), human breast adenocarcinoma (MDA-MB-231) and mutated Human embryonic kidney 293 (HEK293T) cancer cell lines by using MTT colourmetric assay as per Johan van Meerloo protocol. The three cell lines were cultured in […] medium and supplemented with 10% FBS followed by 100 units/mL penicillin/ streptomycin and were cultured at 37 °C in 5% CO2. Cell proliferation of the growing cells was measured in terms of logarithmic standards. Analytically, all the cultured cells were plated onto 96 well plates at a starting density of 10^5 cells. Then all the cells were treated with title compounds 7a–s for a period of 48 h with different concentrations. After this incubation cell proliferation inhibition was determined by MTT assay and all the experiments were conducted in triplicates and readings were presented as mean ± SD and provided in Tables 1, 2 and 3.

[2] = tested on: HT29 cells; assay: MTT cytotoxicity assay against HT29; format: cell-based; settings: Homo sapiens, 48 h, read-out: Percentage of inhibition against treated concentrations; for activity at 1 µM: HT-29, HT29, 1 µM; for activity at 5 µM: HT-29, HT29, 5 µM; for activity at 10 µM: HT-29, HT29, 10 µM; for activity at 25 µM: HT-29, HT29, 25 µM; for activity at 50 µM: HT-29, HT29, 50 µM
Experimental: as §1, §2

[3] = tested on: MDA-MB-231 cells; assay: MTT cytotoxicity assay against MDA-MB-231; format: cell-based; settings: Homo sapiens, 48 h, read-out: Percentage of inhibition against treated concentrations; for activity at 1 µM: MDAMB231, 1 µM; for activity at 5 µM: MDAMB231, 5 µM; for activity at 10 µM: MDAMB231, 10 µM; for activity at 25 µM: MDAMB231, 25 µM; for activity at 50 µM: MDAMB231, 50 µM
Experimental: as §1, §2

Row | SMILES | melting point [°C] | activity at 1 µM [1] [%] | activity at 5 µM [1] [%] | activity at 10 µM [1] [%] | activity at 25 µM [1] [%] | activity at 50 µM [1] [%] | activity at 1 µM [2] [%] | activity at 5 µM [2] [%] | activity at 10 µM [2] [%] | activity at 25 µM [2] [%] | activity at 50 µM [2] [%] | activity at 1 µM [3] [%] | activity at 5 µM [3] [%] | activity at 10 µM [3] [%] | activity at 25 µM [3] [%] | activity at 50 µM [3] [%]
1 | O=C(c1ccccn1)N1CCn2c3ccccc3c(=O)c3cccc1c32 [Compound 7a, 3-Picolinoyl-2,3-dihydropyrazino[3,2,1-de]acridin-7(1H)-one] | 232 to 234 | 99.93 ± 0.11 | 98.52 ± 0.96 | 97.63 ± 0.45 | 96.81 ± 0.2 | 57 ± 0.81 | 78.91 ± 0.42 | 57.61 ± 0.39 | 44.1 ± 0.86 | 14.9 ± 0.36 | 8.77 ± 0.72 | 84.42 ± 0.35 | 55.22 ± 0.46 | 44.52 ± 0.29 | 25 ± 0.27 | 14.7 ± 0.42
2 | O=c1c2ccccc2n2c3c(cccc13)N(c1cccnc1)CC2 [Compound 7s, 3-(Pyridin-3-yl)-2,3-dihydropyrazino[3,2,1-de]acridin-7(1H)-one] |  | 93.26 ± 0.88 | 91.78 ± 0.53 | 88.09 ± 0.54 | 80.57 ± 0.26 | 47.8 ± 0.79 | 84.78 ± 0.12 | 60.38 ± 0.24 | 48.4 ± 0.57 | 27.5 ± 0.35 | 15.2 ± 0.61 | 88.63 ± 0.67 | 59.87 ± 0.26 | 49.22 ± 0.24 | 43.07 ± 0.28 | 25.4 ± 0.46
3 | O=C(c1ccsc1)N1CCn2c3ccccc3c(=O)c3cccc1c32 [Compound 7h, 3-(Thiophene-3-carbonyl)-2,3-dihydropyrazino[3,2,1-de]acridin-7(1H)-one] |  | 92.81 ± 0.18 | 89.61 ± 0.31 | 86.2 ± 0.66 | 78.45 ± 0.18 | 46.23 ± 0.43 | 87.92 ± 0.24 | 62.4 ± 0.68 | 50.2 ± 0.65 | 29.5 ± 0.51 | 17.8 ± 0.65 | 82.62 ± 0.41 | 53.8 ± 0.75 | 42.4 ± 0.49 | 21.4 ± 0.29 | 12.6 ± 0.72

More lines, main results first:

Row | melting point [°C] | SMILES | activity at 1 µM [1] [%] | activity at 5 µM [1] [%] | activity at 10 µM [1] [%] | activity at 25 µM [1] [%] | activity at 50 µM [1] [%] | activity at 1 µM [2] [%] | activity at 5 µM [2] [%] | activity at 10 µM [2] [%] | activity at 25 µM [2] [%] | activity at 50 µM [2] [%] | activity at 1 µM [3] [%] | activity at 5 µM [3] [%] | activity at 10 µM [3] [%] | activity at 25 µM [3] [%] | activity at 50 µM [3] [%]
4 | 265 to 267 | O=C(c1ccc(O)cc1)N1CCn2c3ccccc3c(=O)c3cccc1c32 [Compound 7k, 3-(4-hydroxybenzoyl)-2,3-dihydro-1H,7H-pyrazino[3,2,1-de]acridin-7-one] | 99.55 ± 0.46 | 97.77 ± 0.09 | 96.79 ± 0.17 | 95.46 ± 0.43 | 56.26 ± 0.12 | 96.6 ± 0.99 | 81.84 ± 0.11 | 74.68 ± 0.64 | 66.23 ± 0.18 | 28 ± 0.96 | 97.31 ± 0.74 | 88.16 ± 0.43 | 80.54 ± 0.54 | 70.48 ± 0.17 | 41.5 ± 0.91
5 | 233 to 235 | O=C(c1ccncc1)N1CCn2c3ccccc3c(=O)c3cccc1c32 [Compound 7c, 3-Isonicotinoyl-2,3 dihydropyrazino[3,2,1-de]acridin-7(1H)-one] | 96.63 ± 0.53 | 94.28 ± 0.53 | 90.18 ± 0.38 | 83.28 ± 0.21 | 49.08 ± 0.23 | 90.02 ± 0.31 | 66.2 ± 0.83 | 52.9 ± 0.84 | 40.37 ± 0.15 | 20.79 ± 0.08 | 86.8 ± 0.96 | 57.39 ± 0.32 | 47.2 ± 0.93 | 38.69 ± 0.28 | 22.8 ± 0.89
6 | 246 to 248 | Cc1cccc(C(=O)N2CCn3c4ccccc4c(=O)c4cccc2c43)n1 [Compound 7e, 3-(6-Methylpicolinoyl)-2,3-dihydropyrazino[3,2,1-de]acridin-7(1H)-one] | 98.73 ± 0.97 | 97.08 ± 0.25 | 95.2 ± 0.76 | 91.72 ± 0.35 | 54 ± 0.77 | 84.9 ± 0.94 | 60.82 ± 0.33 | 49.1 ± 0.85 | 27.6 ± 0.35 | 16.3 ± 0.55 | 82.18 ± 0.79 | 52.9 ± 0.75 | 42.1 ± 0.52 | 15.83 ± 0.14 | 11.3 ± 0.22
